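Following 48 hours of exposure in 96-well plates, responses at five concentrations were used to interpolate endpoints linearly. GI50 is the concentration that inhibits growth by half.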 Activity calls are given as the source filed them. No stated cut-off is given here; in the data, active = GI50 up to about 1.1 µM and inactive = higher. Some results are limits rather than exact numbers.

The source of these data is ChEMBL document CHEMBL1201862, “PubChem BioAssay data set” (2004).

Test systems include DU-145; MDA-MB-435; COLO 205; CCRF-CEM; A498; KM12; RXF 393; NCI-H23; Malme-3M; OVCAR-3; HL-60; SF-268; UO-31; SW-620; HCT-15; U-251; 786-0; NCI/ADR-RES; CAKI-1; SF-295.
Common to all, as to experiment: NCI-60 cell line screen, 48 h

Consider `C/N=C/N(C)c1c2ccccc2nc2ccccc12`, for which the GI50 in the test on DU-145, in the test with MDA-MB-435, in the test with COLO 205, with CCRF-CEM, in the test on A498 and in the test on KM12 was > 100 µM (inactive) each time. In addition, the GI50 with RXF 393, in the test on NCI-H23, with Malme-3M, in the test on OVCAR-3, with HL-60 and in the test on SF-268 was > 100 µM (inactive) in each case. Moreover, the GI50 is 11.6 µM (inactive) in the test with UO-31; > 100 µM (inactive) with SW-620; above 100 µM in the test with HCT-15; > 100 µM (inactive) in the test with U-251; > 100 µM (inactive) with 786-0; > 100 µM (inactive) with NCI/ADR-RES. Moreover, the GI50 with CAKI-1 and in the test on SF-295 was > 100 µM (inactive) throughout.

Consider `CNC(=O)c1ccccc1-[s+]1c2ccccc2c(=O)n1C` (stereo not given), for which the GI50 with DU-145, in the test with MDA-MB-435, in the test on COLO 205, in the test on CCRF-CEM, in the test with A498 and in the test with KM12 was > 100 µM (inactive) in each case. In addition, the GI50 with RXF 393, in the test on NCI-H23, with Malme-3M, in the test on OVCAR-3, in the test on HL-60 and in the test with SF-268 was > 100 µM (inactive) throughout. Besides, the GI50 was > 100 µM (inactive) in the test on UO-31; > 100 µM (inactive) with SW-620; above 100 µM in the test with HCT-15; > 100 µM (inactive) in the test with U-251; > 100 µM (inactive) in the test on 786-0; > 100 µM (inactive) in the test with NCI/ADR-RES. In addition, the GI50 in the test with CAKI-1 and in the test on SF-295 was > 100 µM (inactive) each time.

As for `CN(C)CCCn1c(Cn2nc3ccccc3n2)nc2cc(C(F)(F)F)ccc21`, the GI50 is 29.7 µM (inactive) in the test with DU-145; 16.5 µM (inactive) in the test on MDA-MB-435; 15.3 µM (inactive) in the test on COLO 205; 13.2 µM (inactive) with CCRF-CEM; 17.2 µM (inactive) with A498; 22.8 µM (inactive) with KM12. For the same compound, the GI50 in the test on RXF 393 is 22.1 µM (inactive); with NCI-H23, 34 µM (inactive); in the test with Malme-3M it was 11.6 µM (inactive); in the test with OVCAR-3, 36.7 µM (inactive); in the test with HL-60, 1.69 µM (inactive); in the test on SF-268, 42 µM (inactive). For the same compound, the GI50 in the test on UO-31 was 10.5 µM (inactive); in the test on SW-620 it was 34.2 µM (inactive); in the test with HCT-15, 30.1 µM; with U-251, 26.4 µM (inactive); in the test with 786-0, 19.3 µM (inactive); in the test with NCI/ADR-RES it was 23.4 µM (inactive). The values for the GI50 with CAKI-1 and in the test on SF-295 were 32.6 µM (inactive) and 44.1 µM (inactive), respectively.

As to `Cc1ccc(S(=O)(=O)c2c(O)c3ccccc3n(C)c2=O)cc1`, the GI50 in the test on DU-145, in the test on MDA-MB-435, in the test on COLO 205, with CCRF-CEM, in the test with A498 and in the test with KM12 was > 100 µM (inactive) in each case. Besides, the GI50 with RXF 393, with NCI-H23, in the test on Malme-3M, in the test with OVCAR-3, in the test on HL-60 and with SF-268 was > 100 µM (inactive) throughout. Besides, the GI50 in the test with UO-31 was > 100 µM (inactive); with SW-620, > 100 µM (inactive); in the test on HCT-15 it was above 100 µM; in the test on U-251 it was > 100 µM (inactive); with 786-0, > 100 µM (inactive); in the test with NCI/ADR-RES it was > 100 µM (inactive). Besides, the GI50 in the test with CAKI-1 and with SF-295 was > 100 µM (inactive) throughout.
